# Laboratory results published in patent US6667278B2, “Non-steroidal mimetics of brassinolide” (University Technologies International Inc., priority 2000, dated 2003).
# How the values were obtained:
# [1] = system: dwarf rice Oryza satina var. Tan-ginbozu; test: rice leaf lamina inclination bioassay; format: in vivo
# Experimental: Mimetics 3-12, along with brassinolide for comparison, were subjected to the rice leaf lamina inclination bioassay^30. This technique is a rapid, highly sensitive and convenient means for detecting and measuring brassinosteroid bioactivity. Strongly active brassinosteroids such as brassinolide can be readily detected at doses as low as 1 ng/plant. The assay is based on the downward movement response of the second leaf lamina angle of rice seedlings to the application of active brassinosteroids. Thus, a decrease in the leaf angle occurs from about 160 degrees (i.e. nearly upright) in control plants to angles of less than 90 degrees when a strong response is measured. A plot of leaf lamina angle vs. the logarithm of the dose in ng provides a convenient indication of bioactivity.
# Brassinosteroids show synergy with auxins such as indole-3-acetic acid (IAA) in this bioassay^7,30,31. Thus, co-application of a given dose of the brassinosteroid with IAA generally elicits a similar decrease in the leaf lamina angle as would be observed with a dose one or two orders of magnitude higher of the brassinosteroid alone. […] The bioassays of mimetics 3-12 were therefore run both in the presence and absence of 1000 ng of added IAA and mimetic 11 was also bioassayed in the presence of 5000 ng of IAA.
# Mimetics 3-12, along with brassinolide as a standard, were tested for biological activity by means of the rice leaf lamina assay, using a dwarf rice Oryza satina var. Tan-ginbozu, as described^30. The compounds were dissolved in 95% ethanol, except for mimetic 11 where DMSO was used due to poor solubility in ethanol. To a solution of mimetic 11 in 50 microliters of DMSO was added 550 microliters of a 2.5% aqueous solution of Atlas®, an ICI formulating material, to improve uptake. The test solutions were then applied as 0.5 μl microdrops to the rice plants 48 h after planting the germinated seeds on 0.8% water agar. At high doses, several rounds of application of the 0.5 μl microdrops were required to attain the desired dose per plant. Where IAA was a co-treatment, 1,000 or 5,000 ng of IAA was similarly applied per plant ca. 2 h prior to the application of brassinolide and mimetics 3-12. The resultant leaf lamina angle was measured 60-65 h later. For an individual bioassay, each data point is the mean of the leaf angles from ca. 36 plants for doses up to 100 ng and from ca. 24 plants for the 1000 and 10,000 ng doses. Parallel control applications of solvent and IAA (1000 ng) were also carried out. […] Similarly, the results for brassinolide plus IAA, which were reported earlier,^14,16,17a are not shown here for purposes of clarity.
# solubility in ethanol = format: physicochemical
# [2] = system: dwarf rice Oryza satina var. Tan-ginbozu; settings: in vivo; cited from earlier work
# rice, beans and others = settings: applied exogenously; cited from earlier work
# [3] = applied together with IAA in 95% ethanol
# [4] = all dosage levels, with or without IAA application
smiles,measurement,setting,value
"Oc1ccc(C=Cc2ccc(O)c3c2CC(O)C(O)C3)c2c1CC(O)C(O)C2 (mixture of isomers) [Mimetic 6, (E)-(±)-1,2-Bis[4,6α,7α-trihydroxy-5,6,7,8-tetrahydronaphthyl]ethene and its Meso Isomer]",bioactivity in the rice leaf lamina inclination assay,[1]; [3],significant bioactivity
same,dose that produced a significant bioassay response,[1]; [3],10000 ng
"O=C1CC=C(C#CC2=CCC(=O)C3CC(O)C(O)CC23)C2CC(O)C(O)CC12 (mixture of isomers) [Mimetic 10, (±)-1,2-Bis[trans-(4aα,8aβ)-4-oxo-6α,7α-dihydroxy-4a,5,6,7,8,8a-hexahydro-(3H)-naphthyl]ethyne and its Meso Isomer]",bioactivity in the rice leaf lamina inclination assay,[1]; [4],devoid of activity
"O=C1CC=C(C=CC2=CCC(=O)C3CC(O)C(O)CC23)C2CC(O)C(O)CC12 (mixture of isomers) [Mimetic 11, (E)-1,2-Bis[trans-(4aα,8aβ)-4-oxo-6α,7α-dihydroxy-4a,5,6,7,8,8a-hexahydro-(3H)-naphthyl]ethene and its Meso Isomer]",solubility in ethanol,solubility in ethanol,poor
same,bioactivity in the rice leaf lamina inclination assay,"[1]; IAA increased to 5000 ng, DMSO diluted with 2.5% aqueous Atlas, compared with 1000 ng IAA",even further enhanced
same,bioactivity in the rice leaf lamina inclination assay,"[1]; applied together with 1000 ng of IAA, DMSO diluted with 2.5% aqueous Atlas",active across a wide range of doses
same,dose at which significant activity is displayed,"[1]; with 5000 ng of IAA, DMSO/Atlas",0.01 ng
"Oc1cc(C#Cc2ccc3c(c2)CC(O)C(O)C3)cc2c1CC(O)C(O)C2 (racemic) [Mimetic 4, (±)-1-[4,6α,7α-Trihydroxy-5,6,7,8-tetrahydronaphthyl]-2-[6α′,7α∝-dihydroxy-5′,6′,7′,8′-tetrahydronaphthyl]ethyne as Two (±) Pairs]",bioactivity in the rice leaf lamina inclination assay,[1]; [3],"modest, but statistically significant activity"
"Oc1ccc(C#Cc2ccc(O)c3c2CC(O)C(O)C3)c2c1CC(O)C(O)C2 (single isomer, unassigned) [Mimetic 3, (±)-1,2-Bis[4,6α,7α-trihydroxy-5,6,7,8-tetrahydronaphthyl]ethyne and its Meso Isomer]",bioactivity in the rice leaf lamina inclination assay,[1]; [3],"modest, but statistically significant activity"
same,dose that produced a significant bioassay response,[1]; [3],"10,000 ng"
"OC1Cc2ccc(C#Cc3ccc4c(c3)CC(O)C(O)C4)cc2CC1O (single isomer, unassigned) [Mimetic 5, (±)-1,2-Bis[6α,7α-dihydroxy-5,6,7,8-tetrahydronaphthyl]ethyne and its Meso Isomer]",bioactivity in the rice leaf lamina inclination assay,[1]; [4],completely inactive
"OC1Cc2ccc(/C=C/c3ccc4c(c3)CC(O)C(O)C4)cc2CC1O (single isomer, unassigned) [Mimetic 7, (E)-(±)-1,2-Bis[6α,7α-dihydroxy-5,6,7,8-tetrahydronaphthyl]ethene and its Meso Isomer]",bioactivity in the rice leaf lamina inclination assay,[1]; [4],completely inactive
"Oc1ccc(CCc2ccc(O)c3c2CC(O)C(O)C3)c2c1CC(O)C(O)C2 (single isomer, unassigned) [Mimetic 8, (±)-1,2-Bis[4,6α,7α-trihydroxy-5,6,7,8-tetrahydronaphthyl]ethane and its Meso Isomer]",bioactivity in the rice leaf lamina inclination assay,[1]; [4],no bioactivity
"O=C1CCC(=NN=C2CCC(=O)C3CC(O)C(O)CC23)C2CC(O)C(O)CC12 (single isomer, unassigned) [Mimetic 12, 6,7-Dihydroxy-2,3,4a,5,6,7,8,8a-octahydro-4-oxo-naphthalenone Azine (Mixture of Isomers)]",bioactivity in the rice leaf lamina inclination assay,[1]; [4],devoid of activity
"O=C(O)Cc1c[nH]c2ccccc12 [IAA, indole-3-acetic acid, reference compound]",effect in the bioassay,[1]; applied on its own,without significant effect
"Oc1cc2c(O)ccc(CCc3ccc(O)c4cc(O)c(O)cc34)c2cc1O [Mimetic 9, 1,2-Bis(4,6,7-trihydroxynaphthyl)ethane]",bioactivity in the rice leaf lamina inclination assay,[1]; [4],no bioactivity
"CC(C)[C@H](C)[C@@H](O)[C@H](O)[C@@H](C)[C@H]1CC[C@H]2[C@@H]3COC(=O)[C@H]4C[C@H](O)[C@H](O)C[C@]4(C)[C@H]3CC[C@]12C [brassinolide, (22R, 23R, 24S)-2α,3α,22,23-tetrahydroxy-24-methyl-B-homo-7-oxa-5α-cholestan-6-one]",dose as low as which readily detected,[2],1 ng/plant
same,dose as low as which biological activity is manifested,"rice, beans and others",one
